Test results from patent US11028127B2, “Peptides capable of reactivating p53 mutants” (Yeda Research and Development Co. Ltd., priority 2013, dated 2021).
Where no end group is shown, it is not given here. [ ]: non-standard residue; d: D form. The star is where a group is joined. Myristoyl = CCCCCCCCCCCCCC(=O)*

Test system: Mut-p53
Experiment: Total activity score over combined assays (Table 8)
Set-up: scale not given here
Conditions: for Activity Score: Table 10 summary of activity of the peptides tested; for AS (Activity Score): total score of Table 7; for PCR, activity score / Conformation, activity score: Table 8; for PCR, activity score: head span not shown; for Conformation, activity score: the 14 score columns c4-c17 stand under the heads Conformation, DNA binding, Viability, PCR
Excerpt: Several alternative and complementary methods to screen lead peptide candidates for conformational and functional effects on Mut-p53 were employed. For increased penetration of peptide across cell membranes each peptide contains 3-6 Arginine residues either as part of its sequence or added either at its N-terminus or its C-terminus. […] In-vitro based assays for evaluation were first performed, such as ELISA for assessment of p53 conformation and sequence-specific DNA binding of p53.

Substance | Activity Score | AS (Activity Score) | PCR, activity score | Conformation, activity score
pCAP97 (WNHHHSTPHPAH) | 47 | 47 | – | –
pCAP27 (VHEVTHHWL) | 5 | 5 | – | –
pCAP279 (RDTIERPEIRR) | 6 | – | – | –
pCAP121 (LTLMRLRIIG) | 5 | 5 | – | –
pCAP313 (Myristoyl-RRREILHPEFRILYE) | 8 | – | – | –
pCAP35 (GAMHLPWHMGTL) | 28 | 28 | – | –
pCAP86 (FGSHHEL) | 0 | 0 | – | –
pCAP283 (RRPADQISYLHPPER) | 0 | – | – | –
pCAP42 (MHPPDWYHHTPKH) | 29 | 29 | – | –
pCAP289 (RHNHIRPDNQ) | 6 | – | – | –
pCAP22 (SLLIGFGIIRSR) | 5 | 5 | – | –
pCAP21 (NHPWQFPNRWTV) | 29 | 29 | – | –
pCAP315 (LHFSHIDRR) | 9 | – | – | –
pCAP164 (PLTLI) | 0 | 0 | – | –
pCAP70 (SILTLSRGRKKRRQRRRR) | 33 | 33 | – | –
pCAP293 (RRIRIDPQHD) | 2 | – | – | –
pCAP162 (SILT) | 2 | 2 | – | –
pCAP235 (RSYSKLLCLLERLRISP) | 11 | – | – | –
pCAP68 (YRRLLIGMMWRRRRRRRRRRR) | 39 | 39 | – | –
pCAP82 (QIPHRSSTALQL) | 6 | 6 | – | –
pCAP263 (YDDEHNHHPHHSTHRRR) | 0 | – | – | –
pCAP12 (GGGGGGGGGGGG) | 0 | 0 | – | –

Substance | Activity Score | AS (Activity Score) | PCR, activity score | Conformation, activity score
pCAP156 (VPHIHEFTRRRRRRRR) | 0 | 0 | – | –
pCAP93 (ATQHHYIK) | 17 | 17 | – | –
pCAP267 (KRGGRKRRGGGHRLSYFIRR) | 28 | – | 2 | 3
pCAP84 (GRRRFCM) | 0 | 0 | – | –
pCAP91 (STTHIHA) | 7 | 7 | – | –
pCAP295 (LDLYHPRERR) | 3 | – | – | –
pCAP108 (IIRGNFLIGGRL) | 17 | 17 | – | –
pCAP158 (SFILFIRRGRLGRGDR) | 18 | 18 | – | –
pCAP107 (DRLSVFLFIM) | 0 | 0 | – | –
pCAP17 (LHSKTLVL) | 23 | 23 | – | –
pCAP244 (RRVSELQRNKHGRKHEL) | 5 | – | – | –
pCAP246 (RRRLDDEDVQTPTPSEYQN) | 5 | – | – | –
pCAP31 (PPYSQFLQWYLS) | 0 | 0 | – | –
pCAP141 (SWQALALYAAGWRRRRRR) | 29 | 29 | – | –
pCAP51 (AILTLILRRVIWP) | 4 | 4 | – | –
pCAP204 (MSTESNMPRLIQNDDRRR) | 20 | – | 5 | –
pCAP7 (SPLQTPAAPGAAAGPALSPV) | 6 | 6 | – | –
pCAP294 (FKPERFPQNDRRR) | 0 | – | – | –
pCAP79 (SVHHHHRMHLVA) | 0 | 0 | – | –
pCAP99 (GLHLFTTDRQGW) | 7 | 7 | – | –
pCAP258 (FLIGPDRLIRSR) | 23 | – | 4 | –
pCAP276 (RRVDIHDGQRR) | 3 | – | – | –

Substance | Activity Score | AS (Activity Score) | PCR, activity score | Conformation, activity score
pCAP142 (TLYLPHWHRHRRRRRRRRRR) | 14 | 14 | – | –
pCAP69 (SILTLSRRRRRRRRRR) | 0 | 0 | – | –
pCAP155 (IRGRIIRRRRRRRRRR) | 41 | 41 | – | –
pCAP269 (DEPLPPPERRR) | 0 | – | – | –
pCAP34 (SILTLSRIVLGWW) | 14 | 14 | – | –
pCAP16 (LPNPPERHH) | 24 | 24 | – | –
pCAP125 (ELGLHRH) | 0 | 0 | – | –
pCAP321 (RNIIIRDFIHFSHIDR) | 0 | – | – | –
pCAP13 (HFSHHLK) | 4 | 4 | – | –
pCAP252 (RRVILRSYDGGHSTPHPD) | 0 | – | – | –
pCAP285 (RRDIIRHNAHS) | 4 | – | – | –
pCAP103 (LRRQLQL) | 3 | 3 | – | –
pCAP171 (PHHHS) | 0 | 0 | – | –
pCAP138 (YPTQGHLRRRRRRRRRRRR) | 11 | 11 | – | –
pCAP47 (TLYLPHWHRH) | 14 | 14 | – | –
pCAP64 (APSIFTPHAWRQ) | 2 | 2 | – | –
pCAP52 (SPYPIRT) | 3 | 3 | – | –
pCAP211 (PDSEPPRMELRRR) | 0 | – | – | –
pCAP216 (Myristoyl-HFNHYTFESTCRRRRC; cysteine pairing not given here) | 2 | – | – | –
pCAP30 (TIHPSIS) | 16 | 16 | – | –
pCAP1 (EVTFRHSVV) | 32 | 32 | – | –
pCAP212 (Myristoyl-REEETILIIRRR) | 3 | – | – | –

Substance | Activity Score | AS (Activity Score) | PCR, activity score | Conformation, activity score
pCAP26 (DEFHSFYTARQTG) | 0 | 0 | – | –
pCAP54 (IRGRIIR) | 26 | 26 | – | –
pCAP292 (YDELYQKEDPHRRR) | 0 | – | – | –
pCAP55 (FLLPEPDENTRW) | 8 | 8 | – | –
pCAP100 (FPGHTIH) | 19 | 19 | – | –
pCAP296 (RPADRIRR) | 0 | – | – | –
pCAP214 (RRRESEQRSISLHHHST) | 2 | – | – | –
pCAP80 (HLHKHHYKDSRM) | 9 | 9 | – | –
pCAP275 (Myristoyl-MTYSDMPRRIITDEDRRR) | 6 | – | – | –
pCAP318 (RPEFHSFHPIYERR) | 6 | – | – | –
pCAP304 (Myristoyl-RRIRILMFLIGCGRV) | 0 | – | – | –
pCAP325 (Myristoyl-RRIRDPRILLLHFD) | 61 | – | 6 | 4
pCAP25 (YRRLLIGMMW) | 0 | 0 | – | –
pCAP303 (IVEFRIRR) | 3 | – | – | –
pCAP322 (RRIRDPQIK(Myristoyl)LEIHFSHID; not fully specified; printed as RRIRDPQIK-myrLEIHFSHID) | 0 | – | – | –
pCAP172 (EFHS) | 0 | 0 | – | –
pCAP132 (NHPWQFPNRWTRRRRRR) | 7 | 7 | – | –
pCAP151 (CILRLWWRRRRRRRRRRR) | 33 | 33 | – | –
pCAP288 (THDFDRLLRIRRR) | 6 | – | – | –
pCAP106 (LIRRCSLQR) | 8 | 8 | – | –
pCAP116 (KHHPFDHRLGNQ) | 0 | 0 | – | –
pCAP206 (RRRSHSQENVDQDTDE) | 19 | – | 6 | –

Substance | Activity Score | AS (Activity Score) | PCR, activity score | Conformation, activity score
pCAP242 (Myristoyl-RRLIVRILKLPNPPER) | 67 | – | 6 | 4
pCAP81 (VRCIFRGIWVRL) | 2 | 2 | – | –
pCAP53 (ILVIIQRIM) | 3 | 3 | – | –
pCAP95 (HQIHRNHTY) | 8 | 8 | – | –
pCAP98 (HSSGHNFVLVRQ) | 2 | 2 | – | –
pCAP36 (YPTQGHLR) | 39 | 39 | – | –
pCAP78 (GESFVQHVFRQN) | 0 | 0 | – | –
pCAP270 (SPHPPY) | 0 | – | – | –
pCAP215 (RRDTFDIRILMAF) | 0 | – | – | –
pCAP261 (RRRQPLPSAPENEE) | 5 | – | – | –
pCAP111 (SNIHHQV) | 5 | 5 | – | –
pCAP326 (Myristoyl-RRHNAHHSTPHPDDR) | 53 | – | 4 | 3
pCAP90 (SCRCRLR) | 12 | 12 | – | –
pCAP43 (TDSHSHH) | 15 | 15 | – | –
pCAP264 (RRRREVHTIHQHGIVHSD) | 0 | – | – | –
pCAP56 (ATPFHQT) | 5 | 5 | – | –
pCAP221 (Myristoyl-RRKHNKHRPEPDSDER) | 60 | – | 6 | 3
pCAP83 (HSSHHHPVHSWN) | 25 | 25 | – | –
pCAP6 (LGIDEDEETETAPE) | 5 | 5 | – | –
pCAP179 (ILVI) | 0 | 0 | – | –
pCAP159 ([dR][dR][dR][dR][dR][dR][dR][dR]G[dL][dR]G[dR][dR][dI][dF][dL][dI][dF][dS]) | 53 | 53 | – | –
pCAP75 (TRILCIVRKKRRQRRRRGDR) | 32 | 32 | – | –
